# Assay results taken from ChEMBL document CHEMBL1152860, “Synthesis and antiproliferative activity of 3-amino-N-phenyl-1H-indazole-1-carboxamides” (2009).
# The source made the active and inactive calls. The rule behind the calls is not given here.
# How the values were obtained:
# SN12C = test: Growth inhibition of human SN12C cells after 48 hrs by SRB assay; type: functional
# SK-MEL-5 = test: Growth inhibition of human SK-MEL-5 cells after 48 hrs by SRB assay; type: functional; settings: SK-MEL-5, 48 h
# SNB-19 = test: Growth inhibition of human SNB19 cells after 48 hrs by SRB assay; type: functional; settings: SNB-19, 48 h
# OVCAR-5 = test: Growth inhibition of human OVCAR5 cells after 48 hrs by SRB assay; type: functional; settings: OVCAR-5, 48 h
# SNB-75 = test: Growth inhibition of human SNB75 cells after 48 hrs by SRB assay; type: functional; settings: SNB-75, 48 h
# HT-29 = test: Growth inhibition of human HT-29 cells after 48 hrs by SRB assay; type: functional; settings: HT-29, 48 h
# U-251 = test: Growth inhibition of human U251 cells after 48 hrs by SRB assay; type: functional; settings: U-251, 48 h
# NCI/ADR-RES = test: Growth inhibition of human NCI/ADR-RES cells after 48 hrs by SRB assay; type: functional
# SF-268 = test: Growth inhibition of human SF268 cells after 48 hrs by SRB assay; type: functional; settings: SF-268, 48 h
# T47D = test: Growth inhibition of human T47D cells after 48 hrs by SRB assay; type: functional
# M14 = test: Growth inhibition of human M14 cells after 48 hrs by SRB assay; type: functional; settings: M14, 48 h
# IGROV-1 = test: Growth inhibition of human IGROV1 cells after 48 hrs by SRB assay; type: functional; settings: IGROV-1, 48 h
# MDA-MB-231 = test: Growth inhibition of human MDA-MB-231 cells after 48 hrs by SRB assay; type: functional; settings: MDA-MB-231, 48 h
# NCI-H460 = test: Growth inhibition of human NCI-H460 cells after 48 hrs by SRB assay; type: functional; settings: NCI-H460, 48 h
# SK-MEL-28 = test: Growth inhibition of human SK-MEL-28 cells after 48 hrs by SRB assay; type: functional; settings: SK-MEL-28, 48 h
# HCC 2998 = test: Growth inhibition of human HCC2998 cells after 48 hrs by SRB assay; type: functional; settings: HCC 2998, 48 h
# EKVX = test: Growth inhibition of human EKVX cells after 48 hrs by SRB assay; type: functional
# HOP-92 = test: Growth inhibition of human HOP92 cells after 48 hrs by SRB assay; type: functional; settings: HOP-92, 48 h
# MDA-MB-435 = test: Growth inhibition of human MDA-MB-435 cells after 48 hrs by SRB assay; type: functional; settings: MDA-MB-435, 48 h
# KM12 = test: Growth inhibition of human KM12 cells after 48 hrs by SRB assay; type: functional; settings: KM12, 48 h
# NCI-H322M = test: Growth inhibition of human NCI-H322M cells after 48 hrs by SRB assay; type: functional
# K562 [1] = test: Cell cycle arrest in human K562 cells assessed as accumulation at G2/M phase at 180 uM after 24 hrs using propidium iodide staining by flow cytometry; type: functional, cell-based
# 786-0 = test: Growth inhibition of human 786-0 cells after 48 hrs by SRB assay; type: functional; settings: 786-0, 48 h
# BT-549 = test: Growth inhibition of human BT549 cells after 48 hrs by SRB assay; type: functional; settings: BT-549, 48 h
# COLO 205 = test: Growth inhibition of human COLO205 cells after 48 hrs by SRB assay; type: functional; settings: COLO 205, 48 h
# Malme-3M = test: Growth inhibition of human MALME-3M cells after 48 hrs by SRB assay; type: functional
# HOP-62 = test: Growth inhibition of human HOP62 cells after 48 hrs by SRB assay; type: functional; settings: HOP-62, 48 h
# RXF 393 = test: Growth inhibition of human […] cells after 48 hrs by SRB assay; type: functional; settings: RXF 393, 48 h
# CAKI-1 = test: Growth inhibition of human Caki1 cells after 48 hrs by SRB assay; type: functional; settings: CAKI-1, 48 h
# HCT-15 = test: Growth inhibition of human HCT15 cells after 48 hrs by SRB assay; type: functional; settings: HCT-15, 48 h
# SK-OV-3 = test: Growth inhibition of human SKOV3 cells after 48 hrs by SRB assay; type: functional; settings: SK-OV-3, 48 h
# K562 [2] = test: Growth inhibition of human K562 cells after 48 hrs by SRB assay; type: functional; settings: K562, 48 h
# NCI-H226 = test: Growth inhibition of human NCI-H226 cells after 48 hrs by SRB assay; type: functional; settings: NCI-H226, 48 h
# UACC-62 = test: Growth inhibition of human UACC62 cells after 48 hrs by SRB assay; type: functional; settings: UACC-62, 48 h
# OVCAR-3 = test: Growth inhibition of human OVCAR-3 cells after 48 hrs by SRB assay; type: functional; settings: OVCAR-3, 48 h
# NCI-H23 = test: Growth inhibition of human NCI-H23 cells after 48 hrs by SRB assay; type: functional; settings: NCI-H23, 48 h
# OVCAR-4 = test: Growth inhibition of human OVCAR4 cells after 48 hrs by SRB assay; type: functional; settings: OVCAR-4, 48 h
# UO-31 = test: Growth inhibition of human UO31 cells after 48 hrs by SRB assay; type: functional; settings: UO-31, 48 h
# SR = test: Growth inhibition of human SR cells after 48 hrs by SRB assay; type: functional
# HL-60(TB) = test: Growth inhibition of human HL-60(TB) cells after 48 hrs by SRB assay; type: functional; settings: HL-60, 48 h
# ACHN = test: Growth inhibition of human ACHN cells after 48 hrs by SRB assay; type: functional
# HCT-116 = test: Growth inhibition of human HCT116 cells after 48 hrs by SRB assay; type: functional; settings: HCT-116, 48 h
# DU-145 = test: Growth inhibition of human DU145 cells after 48 hrs by SRB assay; type: functional; settings: DU-145, 48 h
# SW-620 = test: Growth inhibition of human SW620 cells after 48 hrs by SRB assay; type: functional; settings: SW-620, 48 h
# SF-295 = test: Growth inhibition of human SF295 cells after 48 hrs by SRB assay; type: functional; settings: SF-295, 48 h
# PC-3 = test: Growth inhibition of human PC3 cells after 48 hrs by SRB assay; type: functional; settings: PC-3, 48 h
# UACC-257 = test: Growth inhibition of human UACC257 cells after 48 hrs by SRB assay; type: functional; settings: UACC-257, 48 h
# SF-539 = test: Growth inhibition of human SF539 cells after 48 hrs by SRB assay; type: functional; settings: SF-539, 48 h
# RPMI-8226 = test: Growth inhibition of human RPMI8226 cells after 48 hrs by SRB assay; type: functional; settings: RPMI-8226, 48 h
# TK-10 = test: Growth inhibition of human TK10 cells after 48 hrs by SRB assay; type: functional; settings: TK-10, 48 h
# OVCAR-8 = test: Growth inhibition of human OVCAR8 cells after 48 hrs by SRB assay; type: functional; settings: OVCAR-8, 48 h
# MCF7 = test: Growth inhibition of human MCF7 cells after 48 hrs by SRB assay; type: functional; settings: MCF7, 48 h
# MOLT-4 = test: Growth inhibition of human MOLT4 cells after 48 hrs by SRB assay; type: functional; settings: MOLT-4, 48 h
# LOX IMVI = test: Growth inhibition of human LOXIMVI cells after 48 hrs by SRB assay; type: functional
# NCI-H522 = test: Growth inhibition of human NCI-H522 cells after 48 hrs by SRB assay; type: functional; settings: NCI-H522, 48 h
# K562 [3] = test: Cell cycle arrest in human K562 cells assessed as accumulation at S phase at 180 uM after 24 hrs using propidium iodide staining by flow cytometry; type: functional, cell-based
# A498 = test: Growth inhibition of human A498 cells after 48 hrs by SRB assay; type: functional; settings: A498, 48 h
# CCRF-CEM = test: Growth inhibition of human CCRF-CEM cells after 48 hrs by SRB assay; type: functional
# [4] = Growth inhibition of human Hs 578T cells after 48 hrs by SRB assay; type: functional
# A549 = test: Growth inhibition of human A549 cells after 48 hrs by SRB assay; type: functional; settings: A549, 48 h
compound,measurement,setting,value
COc1ccccc1NC(=O)n1nc(N)c2ccccc21,GI50,SN12C,> 100 µM
same,GI50,SK-MEL-5,> 100 µM
same,GI50,SNB-19,> 100 µM
same,GI50,OVCAR-5,> 100 µM
same,GI50,SNB-75,37 µM
same,GI50,HT-29,> 100 µM
same,GI50,U-251,98.7 µM
same,GI50,NCI/ADR-RES,90.7 µM
same,GI50,SF-268,> 100 µM
same,GI50,T47D,> 100 µM
same,GI50,M14,> 100 µM
same,GI50,IGROV-1,27.3 µM
same,GI50,MDA-MB-231,46.1 µM
same,GI50,NCI-H460,78.9 µM
same,GI50,SK-MEL-28,> 100 µM
same,GI50,HCC 2998,66.2 µM
same,GI50,EKVX,44.8 µM
same,GI50,HOP-92,30.2 µM
same,GI50,MDA-MB-435,> 100 µM
same,GI50,KM12,39.1 µM
same,GI50,NCI-H322M,> 100 µM
same,Activity,K562 [1],Active
same,GI50,786-0,> 100 µM
same,GI50,BT-549,28 µM
same,GI50,COLO 205,> 100 µM
same,GI50,Malme-3M,> 100 µM
same,GI50,HOP-62,100 µM
same,GI50,RXF 393,45.7 µM
same,GI50,CAKI-1,> 100 µM
same,GI50,HCT-15,73.6 µM
same,GI50,SK-OV-3,> 100 µM
same,GI50,K562 [2],> 100 µM
same,GI50,NCI-H226,> 100 µM
same,GI50,UACC-62,> 100 µM
same,GI50,OVCAR-3,> 100 µM
same,GI50,NCI-H23,> 100 µM
same,GI50,OVCAR-4,> 100 µM
same,GI50,UO-31,> 100 µM
same,GI50,SR,92.5 µM
same,GI50,HL-60(TB),47.2 µM
same,GI50,ACHN,> 100 µM
same,GI50,HCT-116,> 100 µM
same,GI50,DU-145,> 100 µM
same,GI50,SW-620,> 100 µM
same,GI50,SF-295,56.6 µM
same,GI50,PC-3,83.1 µM
same,GI50,UACC-257,> 100 µM
same,GI50,SF-539,60.9 µM
same,GI50,RPMI-8226,86 µM
same,GI50,TK-10,74.3 µM
same,GI50,OVCAR-8,> 100 µM
same,GI50,MCF7,0.269 µM
same,TGI,MCF7,64.6 µM
same,CC50,MCF7; read-out: LC50 (the source's name),> 100 µM
same,GI50,MOLT-4,54 µM
same,GI50,LOX IMVI,92.1 µM
same,GI50,NCI-H522,49.5 µM
same,Activity,K562 [3],Active
same,GI50,A498,> 100 µM
same,GI50,CCRF-CEM,> 100 µM
same,GI50,[4],33.8 µM
same,GI50,A549,> 100 µM
